How the values were obtained:
Bovine carotid arteries = test system: Bovine carotid arteries
Excerpt: (§1) Bovine carotid and rabbit femoral arteries were harvested and placed into a container with DMEM. The arteries were then transferred to a petri dish with DPBS, and excess fat was removed from the vessel exterior with the aid of a scalpel and forceps. The vessel was then filleted with a pair of surgical scissors to expose the luminal surface. The lumen of the bovine vessel was scrape damaged with a spatula to simulate the damage that would occur during a vascular procedure in which plaque is scrapped off. The vessel was utilized without further preparation. The vessels were loaded into a tubular perfusion chamber. The wash medium used was DMEM with a 4.5 g/dl of bovine serum albumin [BSA] (Sigma). A syringe pump (Harvard Apparatus) was used to provide flow and mimic the arterial shear conditions that would be experienced in vivo. Initially, the vessel was perfused for five minutes with the wash medium. At this point, 1 mL of a 10 mM NHS-PEG-Biotin solution was injected into the chamber and incubated with the vessel for modification for one minute. Again, the wash medium was perfused for five minutes. Next, a 10 mL solution of NeutrAvidin-coated microspheres (Molecular Probes) at a concentration of 7.28×10^6 particles/mL was perfused over the modified surface for 2 minutes. The vessel was washed for five minutes one additional time and then removed from the chamber. Finally, the vessel was analyzed by counting the number of microspheres bound per mm^2 of tissue using epi-fluorescence microscopy. This same protocol was repeated for the control, with the vessel being incubated with DPBS alone and not the NHS-PEG-Biotin as described previously.

rabbit femoral arteries = details: 10 mM, one minute modification, two-minute perfusion, versus control, FIG. 3
Excerpt: as §1

NHS-PEG-Biotin
number of microspheres bound per mm^2 of tissue (Bovine carotid arteries; bovine arteries, 10 mM, one minute modification, two-minute perfusion, versus control, FIG. 2): far greater than the control vessels | binding of the microspheres to the modified versus unmodified surfaces (fluorescent micrographs) (Bovine carotid arteries; carotid artery segments, 10 mM NHS-PEG-Biotin, one minute, FIGS. 1A and 1B): microspheres have attached | number of microspheres bound per mm^2 of tissue (rabbit femoral arteries): far greater than the control vessels

— patent US20020022266A1, “Localized delivery to a target surface” (priority 2000, published 2002)
